The subject of one assay is KLS cells. In words: In vitro culture of murine KLS cells with PGE2, PD-L1+ HSCs by FACS. It counts as cell-based. As to conditions: KLS of B6 and NOD mice; PGE2 (2 μl, 10 μM); after 8 days. The method, then:
(§1) We evaluated the characteristics of CXCR4 antagonist-mobilized HSCs by FACS analysis. Lin^−c-Kit^+Sca-1^+ cells were sorted from islet-transplanted or naïve CXCR4 antagonist-treated mice after 7 and 14 days of treatment. […] To evaluate the immunoregulatory role of PD-L1 in murine HSCs, we investigated the effect of mobilized HSCs from WT and PD-L1 KO mice on the alloimmune response in vitro. A standard MLR assay was performed in which HSCs (from WT B6 or PD-L1 KO mice) were syngeneic to responder cells (CD4^+ cells from B6) but allogeneic to bone marrow-derived DCs (from BALB/c). […] The percentage of peripheral PD-L1^+ KLS in 10-week-old NOD and B6 mice was evaluated by FACS. […] We performed a pilot study to assess the feasibility of generation of PD-L1^+ HSCs in vitro by pharmacologic approach. KLS cells were isolated from splenocytes of B6 and NOD mice by magnetic beads and cultured with standard stem cell medium plus PGE2 (2 μl, 10 μM).

The test system of assay [1] is CD34^+ cells. In words: Ex vivo culture of human CD34+ cells with PGE2, PD-L1 expression by FACS. It counts as cell-based. The protocol:
CD34^+ cells were isolated from patients (20 ml of blood) using magnetic beads and ˜1×10^6 cells were plated in a U-bottom 96-well plate with 200 μl of the indicated medium. STFIA medium was defined as serum-free medium supplemented with 10 μg/ml heparin, 10 ng/ml human SCF, 20 ng/ml human TPO, 10 ng/ml human FGF-1, 100 ng/ml IGFBP2, and 500 ng/ml Angptl3. PGE2 was added the culture at 0 h, 24 h, 72 h and 6 days. An aliquot of 2 μl of diluted PGE2 at a concentration of 10 μM was added to the 200 μl of each well in the 96-well plate. The approximate final concentration of PGE2 in each well is 0.1 μM. Therefore, the cells are exposed to ˜0.1 μM of PGE2. The periodic addition of PGE2 at 24 h, 72 h and 6 days serves to maintain the PGE2 in the culture media. Cells were cultured for 7 days at 37° C. in 5% CO2 and the normal level of O2.
Alternatively, cells are cultured in the same conditions for 48 h in the absence of PGE2, after which and PGE2 is added and then later at 24 h after the initial additional. PGE2 is added to the same approximate final concentration of PGE2 of 0.1 μM. We typically observed a ˜10-fold increase of CD34^+PD-L1^+ of cells after 8 days of culture when compared with a cell culture with the same medium cultured for the same time in the same conditions with cells obtained from the same subjects but without addition of PGE2.
Human – human HSCs were cultured using StemSpan supplemented with human stem cell growth factors as previously reported (22). Briefly, CD34^+ cells were plated at 5×10^5 cells/ml in supplemented StemSpan on a 96-well plate, at 200 μl/well for 7 days. HSCs were pulsed with PGE2 as described in murine experiments. PD-L1^+ HSCs were quantified by FACS analysis at different timepoints and at the end of the procedure.
In general terms: Flow cytometry measures light scatter and fluorescence of single cells or particles in a stream.

Assay [2] concerns CD34^+ cells.
From the text: To assess whether mobilization alters expression of PD-L1 on HSCs we studied the immune phenotype of HSCs before and after mobilization with anti-CXCR4 in 5 healthy subjects and 8 individuals with T1D.
Blood samples were obtained from new onset diabetic individuals (New-onset T1D), long-standing diabetic individuals (T1D) and healthy individuals (CTRL) in accordance with The San Raffaele Scientific Research Institute under an Institutional Review Board committee approval. Peripheral blood mononuclear cells (PBMC) fractions were isolated by Ficoll density gradient centrifugation for cell culturing experiments. Additional blood samples were obtained from T1D subjects and CTRL at baseline before treatment and 6 hours after treatment with CXCR4-antagonist (Mozobil; Sanofi) at the dose of 0.24 mg/kg body weight in accordance with the Institution Review Board Committee of Padova (2996P) and was performed in accordance with the Declaration of Helsinki (Clinical trial registered on clinicaltrials.gov (NCT02056210)). Patients with Type 1 Diabetes aged 18-65 years were recruited among those referred to the diabetes outpatient clinic of the University Hospital of Padova. Individuals without diabetes aged 18-65 years were recruited from those referred to the same outpatient clinic for screening of other metabolic diseases. All provided written informed consent. […] Women with childbearing potential could participate in the study if on oral contraception, and a negative pregnancy test was required before study entry. […] All medications for the treatment of diabetes and for other medical conditions were allowed during the study.
To assess PD-L1, PD-L2 and PD-1 expression on human HSCs, fresh blood collected from healthy individuals, T1D and new-onset T1D individuals was stained with PE-Cy5.5 anti-human CD34, PE anti-human PD-L1 or PD-L2 or PD-1 (BD Biosciences). […]
Assay [3] deals with Lin^−c-Kit^+Sca-1^+ cells. The protocol: as §1
Another assay has as its system CD34+ cells. Nature of the assay: HSC mobilization with hrG-CSF (trial NCT01102699). It counts as in vivo, human. The conditions noted are these: 5 μg/kg.
Setting [4] is: after 7 and 14 days of treatment.

Read-outs that look alike come from different tables or passages of the source.

For the molecule `CCCCC[C@H](O)/C=C/[C@H]1[C@H](O)CC(=O)[C@@H]1C/C=C\CCCC(=O)O` [PGE2, prostaglandin E2], in the assay with KLS cells, the “increase in the PD-L1^+ HSCs” value was ~30 % fold. Moreover, the “increase in the percentage of PD-L1^+ HSCs” value in the assay with CD34^+ cells [1] (CD34+ cells of T1D individuals (n=10), after 7 days) is given as ~8 times fold. In addition, the “increased expression of PD-L1 as compared to baseline” value in the assay with CD34^+ cells [1] (PGE2 culture protocol) is recorded as “at least 5 fold”. Moreover, the “increase of CD34^+PD-L1^+ of cells” value in the assay on CD34^+ cells [1] (PGE2 ~0.1 μM, after 8 days of culture vs same culture without PGE2) is ~10 fold.
Regarding `c1cc(CN2CCCNCCNCCCNCC2)ccc1CN1CCCNCCNCCCNCC1` [CXCR4 antagonist, plerixafor], in the assay on CD34^+ cells [2] (5 controls and 8 T1D individuals), the “percentage of CD34^+ PD-L1^+ cells after mobilization” value is “decrease”. In addition, the “PD-L1 expression on CD34^+ cells after mobilization” value with CD34^+ cells [2] (T1D individuals (n=8), before 1.5±0.8) came out at 4.7±1.5. For the same molecule, the “PD-L1 expression on CD34^+ cells after mobilization” value in the assay with CD34^+ cells [2] (healthy subjects (n=5), before 0.6±0.2) is recorded as 6.2±0.6. The “PD-L1^+ HSCs in bone marrow” value in assay [3] (B6 islet-transplanted mice, 6 h after initiation of treatment) is on record as “did not increase”. Further, in assay [3] (setting [4]), the “CXCR4 expressed by extracted HSCs” value is 38.4±4.2% and the “PD-L1 expressed by mobilized HSCs” value came to 58.0±7.1%.

B1: hrG-CSF: granulocyte colony stimulating factor (protein, UniProt P09919 31-207, looked up)
Granulocyte …: TPLGPASSLPQSFLLKCLEQVRKIQGDGAALQEKLVSECATYKLCHPEELVLLGHSLGIPWAPLSSCPSQALQLAGCLSQLHSGLFLYQGLLQALEGISPELGPTLDTLQLDVADFATTIWQQMEELGMAPALQPTQGAMPAFASAFQRRAGGVLVASHLQSFLEVSYRVLRHLAQP
In the case of B1, the “CD34+ cell mobilization” value with CD34+ cells (T1D individuals) is on record as “impaired mobilization”; in the assay on CD34+ cells (healthy controls), “significantly increased”.

These data come from patent publication US10751373B2, “PD-L1 expressing hematopoietic stem cells and uses” (The Children's Medical Center Corporation, priority 2015, dated 2020).
